Activity calls are given as the source filed them. The calls are words filed in the database; no cut-off is given here.
Assays:
[1] = molecular target: T1, Calcium-activated potassium channel subunit beta-4 (Homo sapiens, UniProt Q86W47); test: Binding affinity to NT-495 fluorophore reagent labelled human BK beta4 (45 to 166 residues) incubated for 30 mins by microscale thermophoresis assay
T1 sequence (Q86W47 whole entry): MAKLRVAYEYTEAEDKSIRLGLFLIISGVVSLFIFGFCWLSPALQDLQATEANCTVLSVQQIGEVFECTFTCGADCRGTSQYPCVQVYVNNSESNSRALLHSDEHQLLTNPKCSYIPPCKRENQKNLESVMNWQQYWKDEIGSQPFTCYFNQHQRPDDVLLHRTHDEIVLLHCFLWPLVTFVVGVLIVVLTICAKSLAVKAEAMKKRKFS

KCNMA1/KCNMB4 = KCNMA1/KCNMB4 (Homo sapiens, UniProt Q12791+Q86W47); test: Inhibition of human BK alpha/beta4 channel expressed in HEK293T cells assessed as K+ outward current fraction at 10 uM at -80 mV holding potential by whole cell patch clamp method relative to control; type: cell-based
Rattus norvegicus [2] = species: Rattus norvegicus; test: Anticonvulsant activity against PTZ-induced epileptic seizure Sprague-Dawley rat model assessed as reduction in mortality rate compound infused into hippocampal region and 10 mins later injected with PTZ and measured for 2 hrs post PTZ-stimulation; type: functional, organism-based
[3] = molecular target: T2, KCNMA1/KCNMB4 (Rattus norvegicus) (UniProt Q62976+Q9ESK8); test: Inhibition of BK alpha/beta-4 in PTZ-stimulated rat hippocampal pyramidal neurons assessed as increase in AHP size at 300 pA at -80mV holding potential measured after 10 mins by whole cell current clamp assay; type: protein-complex assay
Rattus norvegicus [4] = species: Rattus norvegicus; test: (§1) Inhibition of C-Fos expression in PTZ-induced epileptic seizures Sprague-Dawley rat model assessed as inhibition of FLI-positive granular neurons in DG region of contralateral hippocampus at 10 uM compound infused into hippocampal region and 10 mins later injected with PTZ and measured after 2 hrs by immunohistochemistry; type: functional, organism-based
Rattus norvegicus [5] = species: Rattus norvegicus; test: Effect on neuronal network in PTZ-induced epileptic seizures Sprague-Dawley rat model assessed as lowered PSD at beta wave band compound infused into hippocampal region and 10 mins later injected with PTZ and measured after 2 hrs by power spectral density analysis; type: functional, organism-based
Rattus norvegicus [6] = species: Rattus norvegicus; test: Effect on neuronal network in PTZ-induced epileptic seizures Sprague-Dawley rat model assessed as lowered PSD at alpha wave band compound infused into hippocampal region and 10 mins later injected with PTZ and measured after 2 hrs by power spectral density analysis; type: functional, organism-based
Rattus norvegicus [7] = species: Rattus norvegicus; test: Effect on neuronal network in PTZ-induced epileptic seizures Sprague-Dawley rat model assessed as lowered PSD at theta wave band compound infused into hippocampal region and 10 mins later injected with PTZ and measured after 2 hrs by power spectral density analysis; type: functional, organism-based
Rattus norvegicus [8] = species: Rattus norvegicus; test: as §1, with “pyramidal” for “granular”, “CA3” for “DG”; type: functional, organism-based
[9] = molecular target: T2, KCNMA1/KCNMB4 (Rattus norvegicus); test: Inhibition of BK alpha/beta-4 in PTZ-stimulated rat hippocampal pyramidal neurons assessed as larger action potential width at 300 pA current injection at -80mV holding potential measured after 10 mins by whole cell current clamp assay; type: protein-complex assay
Rattus norvegicus [10] = species: Rattus norvegicus; test: Effect on neuronal network in PTZ-induced epileptic seizures Sprague-Dawley rat model assessed as reduced total PSD frequency waves compound infused into hippocampal region and 10 mins later injected with PTZ and measured after 2 hrs by power spectral density analysis; type: functional, organism-based
Rattus norvegicus [11] = species: Rattus norvegicus; test: Inhibition of field potential response in PTZ-induced epileptic seizure Sprague-Dawley rat model compound infused into hippocampal region and 10 mins later injected with PTZ and measured after 2 hrs by microarray electrode based analysis; type: functional, organism-based
Rattus norvegicus [12] = species: Rattus norvegicus; test: Anticonvulsant activity against PTZ-induced epileptic seizures Sprague-Dawley rat model assessed as decrease in number of seizures at high stage (stage 4 and 5) compound infused into hippocampal region and 10 mins later injected with PTZ and measured for 2 hrs post-PTZ stimulation; type: functional, organism-based
Rattus norvegicus [13] = species: Rattus norvegicus; test: Effect on neuronal network in PTZ-induced epileptic seizures Sprague-Dawley rat model assessed as lowered PSD at gamma wave band compound infused into hippocampal region and 10 mins later injected with PTZ and measured after 2 hrs by power spectral density analysis; type: functional, organism-based
Rattus norvegicus [14] = species: Rattus norvegicus; test: Anticonvulsant activity against PTZ-induced epileptic seizure Sprague-Dawley rat model assessed as latency time of seizures compound infused into hippocampal region and 10 mins later injected with PTZ and measured for 2 hrs post PTZ-stimulation (reference value: 108.5 +/- 8.63 sec); type: functional
Rattus norvegicus [15] = species: Rattus norvegicus; test: (§2) Neuroprotective activity in PTZ-induced epileptic seizure Sprague-Dawley rat model assessed as inhibition of hippocampal destruction by measuring increase in Nissl stained granular neurons in ipsilateral hippocampus DG region compound infused into hippocampal region and 10 mins later injected with PTZ and measured after 3 days by Nissl staining based microscopic analysis; type: functional, organism-based
Rattus norvegicus [16] = species: Rattus norvegicus; test: as §1, with “ipsilateral” for “contralateral”; type: functional, organism-based
Rattus norvegicus [17] = species: Rattus norvegicus; test: as §2, with “pyramidal” for “granular”, “contralateral” for “ipsilateral”, “CA1” for “DG”; type: functional, organism-based
Rattus norvegicus [18] = species: Rattus norvegicus; test: Effect on neuronal network in PTZ-induced epileptic seizures Sprague-Dawley rat model assessed as lowered PSD at delta wave band compound infused into hippocampal region and 10 mins later injected with PTZ and measured after 2 hrs by power spectral density analysis; type: functional, organism-based
Rattus norvegicus [19] = species: Rattus norvegicus; test: as §1, with “pyramidal” for “granular”, “CA3” for “DG”, “ipsilateral” for “contralateral”; type: functional, organism-based
[20] = molecular target: T2, KCNMA1/KCNMB4 (Rattus norvegicus); test: Inhibition of BK alpha/beta-4 in PTZ-stimulated rat hippocampal pyramidal neurons assessed as slower decay of after hyperpolarization at 300 pA at -80mV holding potential measured after 10 mins by whole cell current clamp assay; type: protein-complex assay
Rattus norvegicus [21] = species: Rattus norvegicus; test: Anticonvulsant activity against PTZ-induced epileptic seizure Sprague-Dawley rat model assessed as duration of seizure compound infused into hippocampal region and 10 mins later injected with PTZ and measured for 2 hrs post PTZ-stimulation (reference value: 376 +/- 76.43 sec); type: functional
Rattus norvegicus [22] = species: Rattus norvegicus; test: as §2, with “pyramidal” for “granular”, “CA3” for “DG”; type: functional, organism-based

CC[C@H](C)[C@H](NC(=O)[C@H](CC(C)C)NC(=O)CNC(=O)[C@H](Cc1ccccc1)NC(=O)[C@H](CO)NC(=O)CN)C(=O)N[C@@H](CC(=O)O)C(=O)N[C@H](C(=O)N[C@@H](CCCCN)C(=O)N[C@H]1CSSC[C@@H]2NC(=O)[C@H](CCC(=O)O)NC(=O)CNC(=O)[C@H](CCC(N)=O)NC(=O)CNC(=O)[C@H](CO)NC(=O)CNC(=O)[C@H]([C@@H](C)O)NC(=O)[C@H](C(C)C)NC(=O)[C@H](CCCCN)NC(=O)[C@H](CCCCN)NC(=O)[C@@H]3CSSC[C@@H](C(=O)N[C@@H](Cc4ccc(O)cc4)C(=O)O)N[C@@H](CC(=O)O)C(=O)[C@H](CSSC[C@H](NC(=O)[C@H](CCC(=O)O)NC(=O)[C@H](CO)NC(=O)[C@H](CO)NC(=O)[C@H](C)NC(=O)[C@H](Cc4ccccc4)NC1=O)C(=O)N[C@@H](Cc1c[nH]c4ccccc14)C(=O)N[C@@H]([C@@H](C)O)C(=O)N[C@@H](C)C(=O)N3)N[C@@H](CCC(N)=O)C(=O)NC(=O)[C@H](CC(N)=O)NC(=O)[C@H](CC(N)=O)NC(=O)[C@H](CCC(N)=O)NC2=O)C(C)C
Kd [1]: Not Active | Ratio (KCNMA1/KCNMB4): 0.8

CC[C@H](C)[C@H](NC(=O)[C@H](CC(C)C)NC(=O)CNC(=O)[C@H](Cc1ccccc1)NC(=O)[C@H](CO)NC(=O)CN)C(=O)N[C@@H](CC(=O)O)C(=O)N[C@H](C(=O)N[C@@H](CCCCN)C(=O)N[C@H]1CSSC[C@@H]2NC(=O)[C@H](CCCCN)NC(=O)CNC(=O)[C@H](CCC(N)=O)NC(=O)CNC(=O)[C@H](CO)NC(=O)CNC(=O)[C@H]([C@@H](C)O)NC(=O)[C@H](C(C)C)NC(=O)[C@H](CCCCN)NC(=O)[C@H](CCCCN)NC(=O)[C@@H]3CSSC[C@@H](C(=O)N[C@@H](Cc4ccc(O)cc4)C(=O)O)N[C@@H](CCCNC(=N)N)C(=O)[C@H](CSSC[C@H](NC(=O)[C@H](CCC(=O)O)NC(=O)[C@H](CO)NC(=O)[C@H](CO)NC(=O)[C@H](C)NC(=O)[C@H](Cc4ccccc4)NC1=O)C(=O)N[C@@H](Cc1c[nH]c4ccccc14)C(=O)N[C@@H](C(C)C)C(=O)N[C@@H](C)C(=O)N3)N[C@@H](CCC(N)=O)C(=O)NC(=O)[C@H](CC(N)=O)NC(=O)[C@H](CC(N)=O)NC(=O)[C@H](CCC(N)=O)NC2=O)C(C)C
Kd ([1]; read-out: Kd): 550 µM | Ratio (KCNMA1/KCNMB4): 0.36

CC[C@H](C)[C@H](NC(=O)[C@H](CC(C)C)NC(=O)CNC(=O)[C@H](Cc1ccccc1)NC(=O)[C@H](CO)NC(=O)CN)C(=O)N[C@@H](CC(=O)O)C(=O)N[C@H](C(=O)N[C@@H](CCCCN)C(=O)N[C@H]1CSSC[C@@H]2NC(=O)[C@H](CCCCN)NC(=O)CNC(=O)[C@H](CCC(N)=O)NC(=O)CNC(=O)[C@H](C)NC(=O)CNC(=O)[C@H]([C@@H](C)O)NC(=O)[C@H](C(C)C)NC(=O)[C@H](CCCCN)NC(=O)[C@H](CCCCN)NC(=O)[C@@H]3CSSC[C@@H](C(=O)N[C@@H](Cc4ccc(O)cc4)C(=O)O)N[C@@H](CCCNC(=N)N)C(=O)[C@H](CSSC[C@H](NC(=O)[C@H](CCC(=O)O)NC(=O)[C@H](CO)NC(=O)[C@H](CO)NC(=O)[C@H](C)NC(=O)[C@H](Cc4ccccc4)NC1=O)C(=O)N[C@@H](Cc1c[nH]c4ccccc14)C(=O)N[C@@H]([C@@H](C)O)C(=O)N[C@@H](C)C(=O)N3)N[C@@H](CCC(N)=O)C(=O)NC(=O)[C@H](CC(N)=O)NC(=O)[C@H](CC(N)=O)NC(=O)[C@H](CCC(N)=O)NC2=O)C(C)C
Kd ([1]; read-out: Kd): 109000 µM | Ratio (KCNMA1/KCNMB4): 0.75

CC[C@H](C)[C@H](NC(=O)[C@H](CC(C)C)NC(=O)CNC(=O)[C@H](Cc1ccccc1)NC(=O)[C@H](CO)NC(=O)CN)C(=O)N[C@@H](CC(=O)O)C(=O)N[C@H](C(=O)N[C@@H](CCCCN)C(=O)N[C@H]1CSSC[C@@H]2NC(=O)[C@H](CCCCN)NC(=O)CNC(=O)[C@H](C)NC(=O)CNC(=O)[C@H](CO)NC(=O)CNC(=O)[C@H]([C@@H](C)O)NC(=O)[C@H](C(C)C)NC(=O)[C@H](CCCCN)NC(=O)[C@H](CCCCN)NC(=O)[C@@H]3CSSC[C@@H](C(=O)N[C@@H](Cc4ccc(O)cc4)C(=O)O)N[C@@H](CCCNC(=N)N)C(=O)[C@H](CSSC[C@H](NC(=O)[C@H](CCC(=O)O)NC(=O)[C@H](CO)NC(=O)[C@H](CO)NC(=O)[C@H](C)NC(=O)[C@H](Cc4ccccc4)NC1=O)C(=O)N[C@@H](Cc1c[nH]c4ccccc14)C(=O)N[C@@H]([C@@H](C)O)C(=O)N[C@@H](C)C(=O)N3)N[C@@H](CCC(N)=O)C(=O)NC(=O)[C@H](CC(N)=O)NC(=O)[C@H](CC(N)=O)NC(=O)[C@H](CCC(N)=O)NC2=O)C(C)C
Activity (Rattus norvegicus [2]): inactive | inhibition [3]: inactive | inhibition (Rattus norvegicus [4]): inactive | Activity (Rattus norvegicus [5]): inactive | Activity (Rattus norvegicus [6]): inactive | Activity (Rattus norvegicus [7]): inactive | Kd ([1]; read-out: Kd): 640 µM | inhibition (Rattus norvegicus [8]): inactive | inhibition [9]: Active | inhibition (Rattus norvegicus [10]): inactive | inhibition (Rattus norvegicus [11]): inactive | Activity (Rattus norvegicus [12]): inactive | Activity (Rattus norvegicus [13]): inactive | Ratio (KCNMA1/KCNMB4): 0.74 | Time (Rattus norvegicus [14]): 219.5 to 266.5 s | Activity (Rattus norvegicus [15]): Active | inhibition (Rattus norvegicus [16]): inactive | Activity (Rattus norvegicus [17]): inactive | Activity (Rattus norvegicus [18]): inactive | inhibition (Rattus norvegicus [19]): inactive | inhibition [20]: inactive | Time (Rattus norvegicus [21]): 316.66 to 353.33 s | Activity (Rattus norvegicus [22]): Active

CC[C@H](C)[C@H](NC(=O)[C@H](CC(C)C)NC(=O)CNC(=O)[C@H](Cc1ccccc1)NC(=O)[C@H](CO)NC(=O)CN)C(=O)N[C@@H](CCCCN)C(=O)N[C@H](C(=O)N[C@@H](CCCCN)C(=O)N[C@H]1CSSC[C@@H]2NC(=O)[C@H](CCCCN)NC(=O)CNC(=O)[C@H](CCC(N)=O)NC(=O)CNC(=O)[C@H](CO)NC(=O)CNC(=O)[C@H]([C@@H](C)O)NC(=O)[C@H](C(C)C)NC(=O)[C@H](CCCCN)NC(=O)[C@H](CCCCN)NC(=O)[C@@H]3CSSC[C@@H](C(=O)N[C@@H](Cc4ccc(O)cc4)C(=O)O)N[C@@H](CCCNC(=N)N)C(=O)[C@H](CSSC[C@H](NC(=O)[C@H](CCCCN)NC(=O)[C@H](CO)NC(=O)[C@H](CO)NC(=O)[C@H](C)NC(=O)[C@H](Cc4ccccc4)NC1=O)C(=O)N[C@@H](Cc1c[nH]c4ccccc14)C(=O)N[C@@H]([C@@H](C)O)C(=O)N[C@@H](C)C(=O)N3)N[C@@H](CCC(N)=O)C(=O)NC(=O)[C@H](CC(N)=O)NC(=O)[C@H](CC(N)=O)NC(=O)[C@H](CCC(N)=O)NC2=O)C(C)C
Kd ([1]; read-out: Kd): 1100 µM | Ratio (KCNMA1/KCNMB4): 0.56
